Here are results for 15 compounds from patent US20240360178A1, “MACROCYCLIC IMMUNOMODULATORS” (Bristol-Myers Squibb Company, priority 2021, published 2024).

Positions of bridges follow the written chain, without caps; N, C: chain ends. Non-standard residues stand in square brackets, D forms with d. Residues, ends and D or L forms follow the SMILES beside them. ξ: configuration not given here. *: point of attachment. Phe(4-COOH) = N[C@@H](Cc1ccc(C(=O)O)cc1)C(=O)O; Bip = N[C@@H](Cc1ccc(-c2ccccc2)cc1)C(=O)O; Phe(3-Me) = Cc1cccc(C[C@H](N)C(=O)O)c1; d(cisHyp) = O=C(O)[C@H]1C[C@@H](O)CN1; Val(3-OH) = CC(C)(O)[C@H](N)C(=O)O; NMeF = CN[C@@H](Cc1ccccc1)C(=O)O; hPhe = N[C@@H](CCc1ccccc1)C(=O)O; ξW = NC(Cc1c[nH]c2ccccc12)C(=O)O; 3Pal = N[C@@H](Cc1cccnc1)C(=O)O; 4Pal = N[C@@H](Cc1ccncc1)C(=O)O; Cha = N[C@@H](CC1CCCCC1)C(=O)O; dPip = O=C(O)[C@H]1CCCCN1; Carboxymethyl = O=C(O)C*; NMeA = CN[C@@H](C)C(=O)O; Orn = NCCC[C@H](N)C(=O)O; Dab = NCC[C@H](N)C(=O)O; Dap = NC[C@H](N)C(=O)O; Sar = CNCC(=O)O

The assay has as its target T1, human PD-1 (Jurkat-PD-1 cells) / PE-labeled human PD-L1-Ig (Homo sapiens, UniProt Q15116).
T1 construct: expressed in transfected cells; host or cells: Jurkat cell line over-expressing human PD-1
The assay can be described thus: Jurkat-PD-1 Cell Binding High-Content Screening Assay (CBA); Jurkat hPD1-PDL1 assay. As to conditions: Jurkat cell line over-expressing human PD-1; PE-labeled PD-L1-Ig 20 nM final; compound incubated 2 hours at 37° C.; read-out: Jurkat HPD1-PDL1 IC50. The gist of the method:
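Binding of phycoerythrin-conjugated PD-L1-Ig (20 nM final) to PD-1-overexpressing Jurkat cells was read by high-content imaging. Cells in DMEM/10% FCS were exposed to compound for 2 hours at 37° C before labeled ligand was added.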

T1 sequence (Q15116 25-288): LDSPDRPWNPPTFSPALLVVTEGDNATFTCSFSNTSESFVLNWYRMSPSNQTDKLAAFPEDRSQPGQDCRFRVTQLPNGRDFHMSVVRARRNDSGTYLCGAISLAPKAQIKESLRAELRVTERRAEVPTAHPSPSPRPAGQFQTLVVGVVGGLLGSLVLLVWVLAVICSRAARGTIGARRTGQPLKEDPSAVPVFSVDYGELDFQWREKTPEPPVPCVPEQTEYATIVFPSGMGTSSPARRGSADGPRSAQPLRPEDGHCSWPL

Regarding `CC(C)C[C@@H]1NC(=O)C(Cc2c[nH]c3ccccc23)NC(=O)[C@H](CC(=O)O)NC(=O)[C@H](Cc2ccc(O)cc2)NC(=O)[C@H](Cc2ccccc2)NC(=O)CSC[C@@H](C(=O)NCC(N)=O)NC(=O)[C@H](CO)NC(=O)[C@H](C(C)C)NC(=O)[C@H](CC(C)C)NC(=O)[C@H](CCCNC(=N)N)NC(=O)CN(C)C(=O)[C@H](C)N(C)C(=O)[C@H](CCCNC(=N)N)NC(=O)[C@H](Cc2ccc(-c3ccccc3)cc2)NC1=O` (stereo partly drawn) [Example 1231] ({CH2CO}-FYD[ξW]L[Bip]R[NMeA][Sar]RLVSCG-NH2; thioether N-14), the half-maximal inhibitory concentration (IC50) (in general, the concentration that inhibits the measured activity by half) was 900 nM.

With `Cc1cccc(C[C@@H]2NC(=O)[C@H](CC(=O)O)NC(=O)[C@H](Cc3ccc(OCC(=O)O)cc3)NC(=O)[C@H](Cc3ccncc3)NC(=O)CSC[C@@H](C(=O)N[C@@H](CCN)C(N)=O)NC(=O)[C@H](CO)NC(=O)[C@H](C(C)(C)O)NC(=O)[C@H](CC3CCCCC3)NC(=O)[C@H](CCN)NC(=O)[C@H]3CCCN3C(=O)[C@H](C)N(C)C(=O)[C@H](Cc3ccc(OCC(=O)O)cc3)NC(=O)[C@H](Cc3ccc(-c4ccccc4)cc3)NC(=O)[C@H](Cc3ccc(OCC(=O)O)cc3)NC2=O)c1` [Example 1179] ({CH2CO}-[4Pal]Y(Carboxymethyl)D[Phe(3-Me)]Y(Carboxymethyl)[Bip]Y(Carboxymethyl)[NMeA][dP][Dab][Cha][Val(3-OH)]SC[Dab]-NH2; thioether N-14), the half-maximal inhibitory concentration (IC50) was 80 nM.

`CC(C)C[C@@H]1NC(=O)[C@H](CCCN)NC(=O)[C@H](Cc2ccccc2)N(C)C(=O)[C@H](C)N(C)C(=O)[C@H](CCCNC(=N)N)NC(=O)[C@H](Cc2ccc(-c3ccccc3)cc2)NC(=O)[C@H](C(C)C)NC(=O)[C@H](Cc2c[nH]c3ccccc23)NC(=O)[C@H](CC(=O)O)NC(=O)[C@H](Cc2ccc(O)cc2)NC(=O)[C@H](Cc2ccccc2)NC(=O)CSC[C@@H](C(=O)NCC(N)=O)NC(=O)[C@H](CO)NC(=O)[C@H](C(C)C)NC1=O` [Example 1278] ({CH2CO}-FYDWV[Bip]R[NMeA][NMeF][Orn]LVSCG-NH2; thioether N-14): the 50% inhibitory concentration (IC50) turned out to be 310 nM.

For `CC(C)C[C@@H]1NC(=O)[C@H](CCCNC(=N)N)NC(=O)[C@H](Cc2ccccc2)N(C)C(=O)[C@H](C)N(C)C(=O)[C@H](CCCNC(=N)N)NC(=O)[C@H](Cc2ccc(-c3ccccc3)cc2)NC(=O)[C@H](C(C)C)NC(=O)[C@H](Cc2c[nH]c3ccccc23)NC(=O)[C@H](CC(=O)O)NC(=O)[C@H](Cc2ccc(O)cc2)NC(=O)[C@H](Cc2ccccc2)NC(=O)CSC[C@@H](C(=O)NCC(N)=O)NC(=O)[C@H]([C@@H](C)O)NC(=O)[C@H](C(C)C)NC1=O` [Example 1129] ({CH2CO}-FYDWV[Bip]R[NMeA][NMeF]RLVTCG-NH2; thioether N-14), the concentration for half-maximal inhibition (IC50) was 500 nM.

In the case of `CC(C)C[C@@H]1NC(=O)[C@H](Cc2c[nH]c3ccccc23)NC(=O)[C@H](CC(=O)O)NC(=O)[C@H](Cc2ccc(O)cc2)NC(=O)[C@H](Cc2ccccc2)NC(=O)CSC[C@@H](C(=O)N[C@@H](C)C(N)=O)NC(=O)[C@H]([C@@H](C)O)NC(=O)[C@H](C(C)C)NC(=O)[C@H](CC(C)C)NC(=O)[C@H](CCN)NC(=O)[C@H]2CCCN2C(=O)[C@H](C)N(C)C(=O)[C@H](C(C)C)NC(=O)[C@H](Cc2ccc(-c3ccccc3)cc2)NC1=O` [Example 1398] ({CH2CO}-FYDWL[Bip]V[NMeA][dP][Dab]LVTCA-NH2; thioether N-14), the half-maximal inhibitory concentration (IC50) stood at 50 nM.

As to `CC(C)C[C@@H]1NC(=O)[C@H](CCCNC(=N)N)NC(=O)[C@H](Cc2ccccc2)N(C)C(=O)[C@H](C)N(C)C(=O)[C@H](CCCNC(=N)N)NC(=O)[C@H](Cc2ccc(-c3ccccc3)cc2)NC(=O)[C@H](C(C)C)NC(=O)[C@H](Cc2c[nH]c3ccccc23)NC(=O)[C@H](CC(=O)O)NC(=O)[C@H](Cc2ccc(OCC(=O)O)cc2)NC(=O)[C@H](Cc2ccc(C(=O)O)cc2)NC(=O)CSC[C@@H](C(=O)NCC(N)=O)NC(=O)[C@H](CO)NC(=O)[C@H](C(C)C)NC1=O` [Example 1300] ({CH2CO}-[Phe(4-COOH)]Y(Carboxymethyl)DWV[Bip]R[NMeA][NMeF]RLVSCG-NH2; thioether N-14), the concentration for half-maximal inhibition (IC50) amounted to 120 nM.

On to `CC(C)C[C@@H]1NC(=O)[C@H](Cc2c[nH]c3ccccc23)NC(=O)[C@H](CC(=O)O)NC(=O)[C@H](Cc2ccc(O)cc2)NC(=O)[C@H](CCc2ccccc2)NC(=O)CSC[C@@H](C(=O)N[C@@H](C)C(N)=O)NC(=O)[C@H](CO)NC(=O)[C@H](C(C)C)NC(=O)[C@H](CC(C)C)NC(=O)[C@H](CC(N)=O)NC(=O)CN(C)C(=O)[C@H](C)N(C)C(=O)[C@H](C(C)C)NC(=O)[C@H](Cc2ccc(-c3ccccc3)cc2)NC1=O` [Example 1070] ({CH2CO}-[hPhe]YDWL[Bip]V[NMeA][Sar]NLVSCA-NH2; thioether N-14), for which the IC50 was 180 nM.

For the compound `CC(C)C[C@@H]1NC(=O)[C@H](CCCNC(=N)N)NC(=O)[C@H](Cc2ccccc2)N(C)C(=O)[C@H](C)N(C)C(=O)[C@H](CCCNC(=N)N)NC(=O)[C@H](Cc2ccc(-c3ccccc3)cc2)NC(=O)[C@H](C(C)C)NC(=O)[C@H](Cc2c[nH]c3ccccc23)NC(=O)[C@H](CC(=O)O)NC(=O)[C@H](Cc2ccc(O)cc2)NC(=O)[C@H](Cc2ccccc2)NC(=O)CSC[C@@H](C(=O)NCC(N)=O)NC(=O)[C@H](CN)NC(=O)[C@H](C(C)C)NC1=O` [Example 1330] ({CH2CO}-FYDWV[Bip]R[NMeA][NMeF]RLV[Dap]CG-NH2; thioether N-14), the half-maximal inhibitory concentration (IC50) came out at 390 nM.

As to `CC(C)C[C@@H]1NC(=O)CSC[C@@H](C(=O)N[C@@H](C)C(N)=O)NC(=O)[C@H]([C@@H](C)O)NC(=O)[C@H](C(C)C)NC(=O)[C@H](CC(C)C)NC(=O)[C@H](CCCNC(=N)N)NC(=O)[C@H](Cc2ccccc2)N(C)C(=O)[C@H](C)N(C)C(=O)[C@H](CCCNC(=N)N)NC(=O)[C@H](Cc2ccc(-c3ccccc3)cc2)NC(=O)[C@H](C(C)C)NC(=O)[C@H](Cc2c[nH]c3ccccc23)NC(=O)[C@H](CC(=O)O)NC(=O)[C@H](Cc2ccc(O)cc2)NC1=O` [Example 1319] ({CH2CO}-LYDWV[Bip]R[NMeA][NMeF]RLVTCA-NH2; thioether N-14), the half-inhibitory concentration (IC50) was 130 nM.

Consider `CC(C)C[C@@H]1NC(=O)[C@H](Cc2c[nH]c3ccccc23)NC(=O)[C@H](CC(=O)O)NC(=O)[C@H](Cc2ccc(O)cc2)NC(=O)[C@H](Cc2ccccc2)NC(=O)CSC[C@@H](C(=O)NCC(N)=O)NC(=O)[C@H](CO)NC(=O)[C@H](C(C)C)NC(=O)[C@H](CC(C)C)NC(=O)[C@H](CC(N)=O)NC(=O)CN(C)C(=O)[C@H](C)N(C)C(=O)[C@H](C(C)C)NC(=O)[C@H](Cc2ccc(-c3ccccc3)cc2)NC1=O` [Example 1001] ({CH2CO}-FYDWL[Bip]V[NMeA][Sar]NLVSCG-NH2; thioether N-14), for which the IC50 came out at 920 nM.

Turning to `CC(C)C[C@@H]1NC(=O)[C@H](CCCNC(=N)N)NC(=O)[C@H](Cc2ccccc2)N(C)C(=O)[C@H](C)N(C)C(=O)[C@H](CCCNC(=N)N)NC(=O)[C@H](Cc2ccc(-c3ccccc3)cc2)NC(=O)[C@H](C(C)C)NC(=O)[C@H](Cc2c[nH]c3ccccc23)NC(=O)[C@H](CC(=O)O)NC(=O)[C@H](Cc2ccc(O)cc2)NC(=O)[C@H](CCC(N)=O)NC(=O)CSC[C@@H](C(=O)N[C@@H](C)C(N)=O)NC(=O)[C@H]([C@@H](C)O)NC(=O)[C@H](C(C)C)NC1=O` [Example 1323] ({CH2CO}-QYDWV[Bip]R[NMeA][NMeF]RLVTCA-NH2; thioether N-14), the concentration for half-maximal inhibition (IC50) stood at 510 nM.

With `CC(C)C[C@@H]1NC(=O)[C@H](Cc2c[nH]c3ccccc23)NC(=O)[C@H](CC(=O)O)NC(=O)[C@H](Cc2ccc(O)cc2)NC(=O)[C@H](Cc2ccccc2)NC(=O)CSC[C@@H](C(=O)N[C@@H](C)C(N)=O)NC(=O)[C@H](CO)NC(=O)[C@H](C(C)C)NC(=O)[C@H](CC(C)C)NC(=O)[C@H](CC(N)=O)NC(=O)[C@H]2CCCCN2C(=O)[C@H](C)N(C)C(=O)[C@H](C(C)C)NC(=O)[C@H](Cc2ccc(-c3ccccc3)cc2)NC1=O` [Example 1038] ({CH2CO}-FYDWL[Bip]V[NMeA][dPip]NLVSCA-NH2; thioether N-14), the IC50 turned out to be 70 nM.

With `CC(C)C[C@@H]1NC(=O)[C@H](Cc2c[nH]c3ccccc23)NC(=O)[C@H](CC(=O)O)NC(=O)[C@H](Cc2ccc(O)cc2)NC(=O)[C@H](Cc2cccnc2)NC(=O)CSC[C@@H](C(=O)NCC(N)=O)NC(=O)[C@H](CO)NC(=O)[C@H](C(C)C)NC(=O)[C@H](CC(C)C)NC(=O)[C@H](CC(N)=O)NC(=O)CN(C)C(=O)[C@H](C)N(C)C(=O)[C@H](C(C)C)NC(=O)[C@H](Cc2ccc(-c3ccccc3)cc2)NC1=O` [Example 1118] ({CH2CO}-[3Pal]YDWL[Bip]V[NMeA][Sar]NLVSCG-NH2; thioether N-14), the IC50 came out at 420 nM.

For `CC(C)C[C@@H]1NC(=O)[C@H](CCCNC(=N)N)NC(=O)[C@H]2CCCN2C(=O)[C@H](C)N(C)C(=O)[C@H](CCCNC(=N)N)NC(=O)[C@H](Cc2ccc(-c3ccccc3)cc2)NC(=O)[C@H](C(C)C)NC(=O)[C@H](Cc2c[nH]c3ccccc23)NC(=O)[C@H](CC(=O)O)NC(=O)[C@H](Cc2ccc(O)cc2)NC(=O)[C@H](Cc2ccccc2)NC(=O)CSC[C@@H](C(=O)N[C@@H](C)C(N)=O)NC(=O)[C@H](CO)NC(=O)[C@H](C(C)C)NC1=O` [Example 1122] ({CH2CO}-FYDWV[Bip]R[NMeA][dP]RLVSCA-NH2; thioether N-14), the IC50 amounted to 430 nM.

For `CC(C)C[C@@H]1NC(=O)[C@H](Cc2c[nH]c3ccccc23)NC(=O)[C@H](CC(=O)O)NC(=O)[C@H](Cc2ccc(O)cc2)NC(=O)[C@H](Cc2ccccc2)NC(=O)CSC[C@@H](C(=O)N[C@@H](C)C(N)=O)NC(=O)[C@H](CO)NC(=O)[C@H](C(C)C)NC(=O)[C@H](CC(C)C)NC(=O)[C@H](CC(N)=O)NC(=O)[C@H]2C[C@@H](O)CN2C(=O)[C@H](C)N(C)C(=O)[C@H](C(C)C)NC(=O)[C@H](Cc2ccc(-c3ccccc3)cc2)NC1=O` [Example 1126] ({CH2CO}-FYDWL[Bip]V[NMeA][d(cisHyp)]NLVSCA-NH2; thioether N-14), the IC50 was determined as 480 nM.
